In the NIST ThermoML archive (doi:10.1021/je4008298):
± gives the expanded uncertainty stated by the source.

Experiment: mn = molality of the nth substance listed, in mol/kg
Conditions: for viscosity / mass density: 101.3 kPa, Liquid; for viscosity: Capillary tube (Ostwald / Ubbelohde) method; for surface tension liquid-gas: Pendant drop shape

NC(CO)CO [2-amino-1,3-propanediol] + O
Conditions | mass density, 293.2 K [kg/m3] | mass density, 300.2 K [kg/m3] | mass density, 307.2 K [kg/m3] | mass density, 313.2 K [kg/m3] | surface tension liquid-gas, 298.2 K [mN/m] | surface tension liquid-gas, 313.2 K [mN/m] | viscosity, 293.2 K [mPa·s] | viscosity, 300.2 K [mPa·s] | viscosity, 307.2 K [mPa·s] | viscosity, 313.2 K [mPa·s]
m1 = 0.953 | 1012.63 ± 0.72 | 1010.28 ± 0.77 | 1008.07 ± 0.82 | 1005.49 ± 0.86 | – | – | 1.244 ± 0.018 | 1.056 ± 0.018 | 0.896 ± 0.017 | 0.8 ± 0.017
m1 = 0.959 | – | – | – | – | 71.7 ± 0.6 | 69.4 ± 0.6 | – | – | – | –
m1 = 2.052 | 1026.97 ± 0.74 | 1024.18 ± 0.79 | 1021.61 ± 0.84 | 1019.22 ± 0.88 | – | – | 1.606 ± 0.02 | 1.335 ± 0.019 | 1.118 ± 0.018 | 0.983 ± 0.017
m1 = 2.151 | – | – | – | – | 71.3 ± 0.6 | 69 ± 0.6 | – | – | – | –
m1 = 3.459 | – | – | – | – | 70.8 ± 0.6 | 68.6 ± 0.6 | – | – | – | –
m1 = 3.464 | 1041.67 ± 0.76 | 1038.8 ± 0.81 | 1036.8 ± 0.86 | 1033.49 ± 0.91 | – | – | 2.157 ± 0.024 | 1.769 ± 0.021 | 1.458 ± 0.02 | 1.275 ± 0.018
m1 = 4.693 | 1052.77 ± 0.79 | 1050.01 ± 0.83 | 1047.38 ± 0.88 | 1044.53 ± 0.92 | – | – | 2.784 ± 0.027 | 2.261 ± 0.024 | 1.845 ± 0.022 | 1.588 ± 0.02
m1 = 4.745 | – | – | – | – | 70.4 ± 0.6 | 68.3 ± 0.6 | – | – | – | –
